According to patent US20230381176A1, “A PHARMACEUTICAL COMPOSITION AND USE THEREOF FOR TREATMENT OF CANCER” (Ascentage Pharma (Suzhou) Co., Ltd., priority 2020, published 2023):

Assays:
A549 NSCLC xenograft [1] = test: s.c. A549 NSCLC xenograft tumor model, Compound 5 and trametinib/selumetinib; format: in vivo, mouse
Experimental: (§1) A subcutaneous xenograft tumor model of human tumor immunodeficient mice was established by cell inoculation: tumor cells in logarithmic growth phase were collected, counted, resuspended in 1×PBS, and the cell suspension concentration was adjusted to 2.5-5 ×10^7/mL. The tumor cells were inoculated subcutaneously in the right side of immunodeficient mice with a 1 mL syringe ([…]), 5-10×10^6/0.2 mL/mouse. All animal experiments were strictly in accordance with the specifications for the use and management of experimental animals in GenePharma Co., Ltd. and Suzhou Ascentage Pharma Co., Ltd. The calculation of relevant parameters refers to the Chinese NMPA “Guidelines for Non-Clinical Research Techniques of Cytotoxic Anti-tumor Drugs”.
(§2) Animal body weight and tumor size were measured twice weekly during the experiment. The state of the animal and the presence or absence of death were observed every day. The growth of tumor and the effects of treatment on normal behavior of animals were monitored routinely, specifically involving experimental animal activity, feeding and drinking, weight gain or loss, eyes, clothing hair and other abnormalities. The deaths and clinical symptoms observed during the experiment were recorded in the raw data. All operations for administration and measurement of mouse body weight and tumor volume were performed in a clean bench. According to the requirements of the experimental protocol, after the end of the last administration, plasma and tumor tissues were collected, weighed and photographed. The plasma and tumor samples were frozen at −80° C. for ready-to-use.
(§3) Tumor volume (TV) is calculated as: TV=a×b^2/2, wherein a and b represent the length and width of the tumor to be measured, respectively.
(§4) The relative tumor volume (RTV) is calculated as: RTV=Vt/V1, wherein V1 is the tumor volume at the start of grouping and administration, and Vt is the tumor volume measured on the t day after administration.
(§5) The evaluation index of anti-tumor activity is the relative tumor proliferation rate T/C (%), and the calculation formula thereof is: relative tumor proliferation rate T/C (%)=(TRTV/CRTV)×100%, TRTV is the RTV of treatment group, CRTV is the RTV of solvent control group.
(§6) Change of body weight (%)=(measured body weight−body weight at the start of grouping)/body weight at the start of grouping×100%.
(§7) A dose of drug is considered to be severely toxic if the body weight of mouse is reduced by more than 20% or the number of drug-related deaths exceeds 20%.
(§8) According to the description by Clarke R., Issues in experimental design and endpoint analysis in the study of experimental cytotoxic agents in vivo in breast cancer and other models [J]. Breast Cancer Research & Treatment, 1997, 46(2-3): 255-278, synergy analysis was evaluated using the following formula: synergy factor=((A/C)×(B/C))/(AB/C); A=RTV value of drug A alone group; B=RTV value of drug B alone group; C=RTV value of the solvent control group, and AB=RTV value of the A and B combination group.
(§9) Use of mRECIST (Gao et al., 2015) measured tumor responses included stable disease (SD), partial tumor regression (PR), and complete regression (CR), determined by comparing tumor volume change at day t to its baseline: tumor volume change (%)=(Vt−V1)/V1. The BestResponse was the minimum value of tumor volume change (%) for t≥10. For each time t, the average of tumor volume changes from t=1 to t was also calculated. BestAvgResponse was defined as the minimum value of this average for t≥10. The criteria for response (mRECIST) were adapted from RECIST criteria (Gao et al., 2015; Therasse et al., 2000) and defined as follows: mCR, BestResponse<−95% and BestAvg Response<−40%; mPR, BestResponse<−50% and BestAvgResponse<−20%; mSD, BestResponse<35% and BestAvgResponse<30%; mPD, not otherwise categorized. SD, PR, and CR were considered responders and used to calculate response rate (%). […] Body weight of animals were monitored simultaneously. […]

[2] = system: Neuroblastoma SH-SY5Y (ALK F1174L) xenograft; test: s.c. Neuroblastoma SH-SY5Y xenograft model, Compound 5 and Compound 33; format: in vivo
Experimental: as §1, §2, §3, §4, §5, §6, §7, §8, §9

A549 NSCLC xenograft [3] = test: s.c. A549 NSCLC lung cancer model, Compound 5 and panobinostat; format: in vivo, mouse
[4] = system: TP53wt, BRAFv600E, NRASwt, PTENwt, CDKN2Amut C32 cutaneous melanoma; test: C32 cutaneous melanoma model, Compound 5 and Dabrafenib + trametinib; format: in vivo
Experimental: In this experiment, a TP53wt , BRAFv600E , NRASwt, PTENwt, CDKN2Amut C32 cutaneous melanoma model (Wuxi Pharma Tech) was established to evaluate the anti-tumor effect of Compound 5 in combination with BRAFi (Dabrafenib)+MEKi (trametinib) (Selleck). The dosing regimen was as follows: • Compound 5: 50 mg/kg, PO QD 21 D, for a total of 25 days; • Dabrafenib +trametinib: Dabrafenib 30mg/kg,QD QD 21 D for a total of 25 days, trametinib 1 mg/kg
The dosing regimen of each drug in the dosing regimen for the combination is the same as the dosing regimen for the single drug.

[5] = Compound 5 100 mg/kg, trametinib 0.5 mg/kg, selumetinib 50 mg/kg, orally once per day
[6] = Compound 5 50 mg/kg orally once per day, Compound 33 50 mg/kg orally once per day D1-D10 and once on D21
[7] = Compound 5 100 mg/kg orally once per day, panobinostat 3 mg/kg i.p. 5 days then 2 days break, 14 days
[8] = Compound 5 50 mg/kg PO QD, Dabrafenib 30 mg/kg QD, trametinib 1 mg/kg

## Cc1cc(Nc2ncc(Cl)c(Nc3ccccc3S(=O)(=O)C(C)C)n2)c(OC(C)C)cc1C1=CCN(C2CCOCC2)CC1 [Compound 5, 5-chloro-N^2-(2-isopropoxy-5-methyl-4-(1-(tetrahydro-2H-pyran-4-yl)-1,2,3,6-tetrahydropyridin-4-yl)phenyl)-N^4-(2-(isopropylsulfonyl)phenyl)pyrimidine-2,4-diamine]
A549 NSCLC xenograft [1]; [5]
  RTV on Day 19 after administration (mean ± standard error): 2.7 ± 0.2
  T/C on Day 19 after administration (%): 72.2%
A549 NSCLC xenograft [1]; Day 19, animals per class
  mRECIST on Day 19 after administration: 5/5 PD
A549 NSCLC xenograft [1]; best response, animals per class
  mRECIST: 1/5 SD, 4/5 PD
A549 NSCLC xenograft [1]; mouse, in vivo
  antitumor activity (conclusion in words): minor antitumor activity
[2]; [6]
  RTV on Day 21 after administration (mean + standard error): 1.79 ± 0.22
  T/C on Day 21 after administration (%): 6.74%
[2]; mouse, in vivo
  DCR: 60
  ORR (%): 0%
  antitumor activity (conclusion in words): strong antitumor activity
A549 NSCLC xenograft [3]; [7]
  RTV on Day 14 after administration (mean ± standard error): 3.21 ± 0.46
  T/C on Day 14 after administration (%): 89.54%
A549 NSCLC xenograft [3]; mouse, in vivo
  antitumor activity (conclusion in words): minor antitumor activity
[4]; [8]
  RTV % @ D25: 17.80 ± 1.3%
  T/C % @ D25: 106.09%
[4]; in vivo
  antitumor activity (conclusion in words): no antitumor activity
